{
  "source": "patent US9168269B2",
  "about": "“Inhibitors of long and very long chain fatty acid metabolism as broad spectrum anti-virals” (THE TRUSTEES OF PRINCETON UNIVERSITY, priority 2010, dated 2015)",
  "key": {"[1]": {"test_system": "HCMV AD169 strain", "assay": "microbe, parasite or virus in culture", "assay_type": "cell-based, human cytomegalovirus"}, "[2]": {"test_system": "ELOVL6", "details": "'in vivo' as printed; cited from earlier work"}, "[3]": {"test_system": "ELOVL3", "details": "'in vivo' as printed; cited from earlier work"}, "[4]": {"test_system": "MRCS human fibroblasts", "assay": "host cell viability, morphology and toxicity in fibroblasts", "details": "at the antiviral doses tested", "method": "(§1) Top panels: About 90% confluent MRCS human fibroblasts were treated with the indicated concentrations of triacsin C or the carrier in which the drug was dissolved (DMSO) in the presence of 10% fetal calf serum and photographed 96 h later. Bottom left panel: About 90% confluent MRCS fibroblasts were either mock infected or infected with the AD169 strain of HCMV at a multiplicity of (0.1 pfu/cell). The uninfected or infected cells received DMSO (solvent for the drug) or the drug for 96 h before cells were assayed for viability. Bottom right panel: About 90% confluent MRCS fibroblasts were infected with HCMV at a multiplicity of (0.1 pfu/cell) in the presence of DMSO (0 nM triacsin C) or triacsin C at the indicated concentrations. Infected fibroblasts were maintained in medium containing 10% fetal calf serum. Virus yield in the medium at 96 h after infection was determined by infecting fibrobalsts and assaying IE1 expression by immunofluorescence 24 h later. 96 h after infection, cells were harvested into culture medium and sonicated to release cell-associated virus. Virus yield in the medium was determined by infecting fibroblasts and assaying IE1 expression by immunofluorescence 24 h later.\n(§2) The effect of triacsin C on the viability of MRCS human fibroblasts in culture medium containing 10% fetal calf serum was tested. At the time drug was added, cells were about 90% confluent."}, "[5]": {"target": "hELOVL3 (Homo sapiens, UniProt Q9HB03)", "sequence (Q9HB03 whole entry)": "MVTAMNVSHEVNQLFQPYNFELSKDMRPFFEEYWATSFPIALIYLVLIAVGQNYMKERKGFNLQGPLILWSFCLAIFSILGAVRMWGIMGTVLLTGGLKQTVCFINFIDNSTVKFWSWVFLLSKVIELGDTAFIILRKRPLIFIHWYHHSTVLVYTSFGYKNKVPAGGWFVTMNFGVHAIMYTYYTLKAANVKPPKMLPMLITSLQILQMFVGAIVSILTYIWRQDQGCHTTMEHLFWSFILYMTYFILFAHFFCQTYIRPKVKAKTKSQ", "details": "in vitro; cited from earlier work"}, "[6]": {"test_system": "late viral protein pUL99", "assay": "HCMV late viral protein expression (pUL99-GFP)", "assay_type": "cell-based, human cytomegalovirus"}, "[7]": {"test_system": "HCV JFH1 strain derivative", "assay": "release of infectious HCV from Huh7.5 cells, TCID50 assay", "method": "Huh7.5 cells were infected with a derivative of HCV JFH1 strain (MOI=0.1 TCID50/cell). Infected cells were maintained in medium containing 10% fetal calf serum plus DMSO (0 nM triacsin C) or triacsin C at the indicated concentrations. Media were harvested at 72 h and infectious virus was quantified by standard TCID50 assay on Huh7.5 cells.\nVirus yield in the medium at 72 h after infection was determined.\nHuh7.5 cells were infected a derivative of HCV JFH1 strain (MOI=0.1 TCID50/cell) Infected cells were maintained in medium containing 10% fetal calf serum plus DMSO (0 μg/ml TOFA) or TOFA at the indicated doses. Media were harvested at 72 h and infectious virus was quantified by standard TCID50 assay on Huh7.5 cells.\nHuh7.5 cells which was infected with HCV and treated with indicated amounts of TOFA (FIG. 21)."}, "[8]": {"test_system": "influenza A", "assay_type": "cell-based", "details": "for magnitude of the therapeutic effect: 10 μg/mL TOFA"}, "[9]": {"test_system": "viral growth and/or replication", "assay": "proposed combination of TOFA and ELOVL inhibitor, virus replication", "assay_type": "cell-based", "details": "presence of a therapeutically effective concentration of ELOVL inhibitor"}, "[10]": {"test_system": "HIV-1", "assay": "proposed combination of TOFA and enfurtivide, HIV-1-infected C8166 cells", "assay_type": "cell-based", "details": "for magnitude of the therapeutic effect: 10 μg/mL TOFA", "source_text": "Non-limiting examples of assays that could be performed to assess the effect of a combination of an ACC inhibitor and an entry inhibitor on HIV-1 replication follow. Assays for TOFA-mediated antiviral activity using HIV-1-infected C8166 cells have been described in (WO 2009/023059). In each assay, various concentrations of TOFA can be combined with various concentrations of enfurtivide and assayed for their effect on virus replication. In one preferred embodiment, a physiological concentration of enfurtivide is held constant as the dose of TOFA is increased. Control cultures are treated with no drug, enfurtivide alone or the various concentrations of TOFA alone. Samples are taken at 24, 48, 72 and 96 hours after initiation of drug treatment. The antiviral effect of enfurtivide plus each concentration of TOFA is then compared to the activity of enfurtivide alone or the various concentrations of TOFA alone. Uptake of neutral red dye is used to determine the relative level of toxicity in duplicate cultures at each time a sample is harvested. […] At 10 μg/mL of TOFA, the magnitude of the therapeutic effect is increased from ^˜10-fold in the absence of enfurtivide to ^˜100-fold in its presence. […] Similar results are obtained for other entry inhibitors."}, "[11]": {"test_system": "host cell"}, "[12]": {"test_system": "HCMV", "assay": "proposed combination of TOFA and triacsin C, virus replication", "assay_type": "cell-based, human cytomegalovirus", "details": "for magnitude of the therapeutic effect: 10 μg/mL TOFA"}, "[13]": {"test_system": "MRCS human fibroblasts", "method": "as §1, §2"}, "[14]": {"target": "T1, hELOVL6 (Homo sapiens, UniProt Q9H5J4)", "T1 sequence (Q9H5J4 1-265)": "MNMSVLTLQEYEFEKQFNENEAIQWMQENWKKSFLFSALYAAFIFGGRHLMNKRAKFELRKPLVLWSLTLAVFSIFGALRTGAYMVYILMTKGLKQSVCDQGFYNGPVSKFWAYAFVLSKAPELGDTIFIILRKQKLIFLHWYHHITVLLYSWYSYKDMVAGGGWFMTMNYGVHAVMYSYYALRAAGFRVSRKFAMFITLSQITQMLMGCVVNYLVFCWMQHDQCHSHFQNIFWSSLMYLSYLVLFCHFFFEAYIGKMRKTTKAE", "details": "in vitro; read-out: hELOVL6 IC50; cited from earlier work"}},
  "note": "Where “and” joins values, the source holds several entries; their conditions need not be identical. Equal values may be shown once. Read-outs that look alike come from different tables or passages of the source.",
  "data": [
    {"compound": "O=C1Nc2ccc(-c3ccn[nH]3)cc2[C@](CNC(=O)c2ccc(F)cc2)(C(F)(F)F)O1", "note": "[(S)-1y]", "values": [
      {"measurement": "inhibition of HCMV replication", "setting": "[1]; 25 μM", "value": "~40", "unit": "fold"},
      {"measurement": "inhibition of HCMV replication", "setting": "[1]; 50 μM", "value": "> 1000", "unit": "fold"},
      {"measurement": "IC50", "setting": "[2]", "value": 169, "unit": "nM"},
      {"measurement": "IC50", "setting": "[3]", "value": "> 5000", "unit": "nM"},
      {"measurement": "toxicity on the cells", "setting": "[4]", "value": "Without inducing any toxicity"},
      {"measurement": "IC50", "setting": "[5]", "value": "~130", "unit": "nM"},
      {"measurement": "HCMV late pUL99 expression, in words", "setting": "[6]", "value": "dramatically reduced"}
    ]},
    {"compound": "CCCCCCCCCCCCCCOc1ccc(C(=O)O)o1", "note": "[TOFA]", "values": [
      {"measurement": "inhibition of release of infectious HCV particles", "setting": "[7]; 5 μg/ml", "value": "> 500", "unit": "fold"},
      {"measurement": "inhibition of release of infectious HCV particles", "setting": "[7]; 10 μg/ml", "value": "> 1000", "unit": "fold"},
      {"measurement": "magnitude of the therapeutic effect", "setting": "[8]; absence of oseltamivir", "value": "~10", "unit": "fold"},
      {"measurement": "magnitude of the therapeutic effect", "setting": "[8]; presence of oseltamivir", "value": "~100", "unit": "fold"},
      {"measurement": "concentration of TOFA required to produce a 10-fold reduction in influenza A replication", "setting": "[8]; TOFA alone", "value": "~10", "unit": "μg/mL"},
      {"measurement": "concentration of TOFA required to produce a 10-fold reduction in influenza A replication", "setting": "[8]; presence of a pharmacologically acceptable concentration of oseltamivir", "value": "< 5", "unit": "μg/mL"},
      {"measurement": "inhibition of HCMV replication", "setting": "[1]; 5 μg/ml", "value": "> 500", "unit": "fold"},
      {"measurement": "reduction of the TOFA concentration required to reduce viral growth and/or replication by 10-fold", "setting": "[9]", "value": "≥ 2", "unit": "fold"},
      {"measurement": "magnitude of the therapeutic effect", "setting": "[10]; absence of enfurtivide", "value": "~10", "unit": "fold"},
      {"measurement": "magnitude of the therapeutic effect", "setting": "[10]; presence of enfurtivide", "value": "~100", "unit": "fold"},
      {"measurement": "concentration of TOFA required to produce a 10-fold reduction in HIV-1 replication", "setting": "[10]; TOFA alone", "value": "~10", "unit": "μg/mL"},
      {"measurement": "concentration of TOFA required to produce a 10-fold reduction in HIV-1 replication", "setting": "[10]; presence of a pharmacologically acceptable concentration of enfurtivide", "value": "< 5", "unit": "μg/mL"},
      {"measurement": "host cell toxicity, neutral red dye assay", "setting": "[11]; combined use of TOFA and enfurtivide", "value": "does not increase host cell toxicity"},
      {"measurement": "host cell toxicity, neutral red dye assay", "setting": "[11]; combined use of TOFA and oseltamivir", "value": "does not increase host cell toxicity"},
      {"measurement": "host cell toxicity, neutral red dye assay", "setting": "[11]; combined use of TOFA and triacsin C", "value": "does not increase host cell toxicity"},
      {"measurement": "concentration of TOFA required to produce a 10-fold reduction in HCMV replication", "setting": "[12]", "value": "~10 μg/mL and < 5 μg/mL"},
      {"measurement": "magnitude of the therapeutic effect", "setting": "[12]; absence of triacsin C", "value": "~10", "unit": "fold"},
      {"measurement": "magnitude of the therapeutic effect", "setting": "[12]; presence of triacsin C", "value": "~100", "unit": "fold"}
    ]},
    {"compound": "O=C(Nc1ccc(C(F)(F)F)cc1)N1C2CCC1CC(S(=O)(=O)c1ccccc1)C2", "note": "(stereo not drawn) [endo-1k]", "values": [
      {"measurement": "inhibition of HCMV replication", "setting": "[1]; 50 μM", "value": "~400", "unit": "fold"},
      {"measurement": "toxicity on the cells", "setting": "[13]", "value": "Without inducing any toxicity"},
      {"measurement": "IC50", "setting": "[14]", "value": "~78", "unit": "nM"},
      {"measurement": "HCMV late pUL99 expression, in words", "setting": "[6]", "value": "dramatically reduced"}
    ]}
  ]
}
